± gives the expanded uncertainty stated by the source.
Test: xn = mol fraction of the nth substance listed
Settings: 100 kPa, Liquid; for speed of sound: Frequency=3 MHz, Single path-length method; for mass density: Vibrating tube method

CCC(O)CO (stereo not given) [1,2-butanediol] + CCCC(=O)OCC
Settings	mass density [kg/m3]	speed of sound [m/s]
298.15 K, x2 = 0	998.56 ± 2	1452.5 ± 1.4
298.15 K, x2 = 0.1011	986 ± 2	1424.2 ± 1.4
298.15 K, x2 = 0.2032	973.31 ± 2	1395.5 ± 1.3
298.15 K, x2 = 0.3034	960.87 ± 2	1367.4 ± 1.2
298.15 K, x2 = 0.4004	948.81 ± 2	1340.2 ± 1.2
298.15 K, x2 = 0.5064	935.64 ± 2	1310.5 ± 1.1
298.15 K, x2 = 0.6021	923.76 ± 2	1283.6 ± 1.1
298.15 K, x2 = 0.7043	911.06 ± 2	1254.9 ± 1.1
298.15 K, x2 = 0.8009	899.06 ± 2	1227.9 ± 1
298.15 K, x2 = 0.9012	886.59 ± 2	1199.7 ± 1
303.15 K, x2 = 0	994.75 ± 2	1437.9 ± 1.4
303.15 K, x2 = 0.1011	982.02 ± 2	1408.9 ± 1.4
303.15 K, x2 = 0.2032	969.16 ± 2	1379.6 ± 1.3
303.15 K, x2 = 0.3034	956.55 ± 2	1350.9 ± 1.2
303.15 K, x2 = 0.4004	944.33 ± 2	1323 ± 1.2
303.15 K, x2 = 0.5064	930.98 ± 2	1292.6 ± 1.1
303.15 K, x2 = 0.6021	918.93 ± 2	1265.2 ± 1.1
303.15 K, x2 = 0.7043	906.06 ± 2	1235.8 ± 1.1
303.15 K, x2 = 0.8009	893.9 ± 2	1208.1 ± 1
303.15 K, x2 = 0.9012	881.27 ± 2	1179.3 ± 1
308.15 K, x2 = 0	990.92 ± 2	1423.3 ± 1.4
308.15 K, x2 = 0.1011	978.03 ± 2	1393.7 ± 1.4
308.15 K, x2 = 0.2032	965.01 ± 2	1363.7 ± 1.3
308.15 K, x2 = 0.3034	952.23 ± 2	1334.3 ± 1.2
308.15 K, x2 = 0.4004	939.86 ± 2	1305.9 ± 1.2
308.15 K, x2 = 0.5064	926.34 ± 2	1274.8 ± 1.1
308.15 K, x2 = 0.6021	914.14 ± 2	1246.7 ± 1.1
308.15 K, x2 = 0.7043	901.11 ± 2	1216.7 ± 1.1
308.15 K, x2 = 0.8009	888.79 ± 2	1188.4 ± 1
308.15 K, x2 = 0.9012	876 ± 2	1159 ± 1
313.15 K, x2 = 0	987.11 ± 2	1408.7 ± 1.4
313.15 K, x2 = 0.1011	974.05 ± 2	1378.4 ± 1.4
313.15 K, x2 = 0.2032	960.87 ± 2	1347.8 ± 1.3
313.15 K, x2 = 0.3034	947.93 ± 2	1317.8 ± 1.2
313.15 K, x2 = 0.4004	935.41 ± 2	1288.7 ± 1.2
313.15 K, x2 = 0.5064	921.72 ± 2	1256.9 ± 1.1
313.15 K, x2 = 0.6021	909.36 ± 2	1228.3 ± 1.1
313.15 K, x2 = 0.7043	896.16 ± 2	1197.6 ± 1.1
313.15 K, x2 = 0.8009	883.69 ± 2	1168.7 ± 1
313.15 K, x2 = 0.9012	870.74 ± 2	1138.6 ± 1
318.15 K, x2 = 0	983.28 ± 2	1394.1 ± 1.4
318.15 K, x2 = 0.1011	970.05 ± 2	1363.2 ± 1.4
318.15 K, x2 = 0.2032	956.7 ± 2	1331.9 ± 1.3
318.15 K, x2 = 0.3034	943.59 ± 2	1301.2 ± 1.2
318.15 K, x2 = 0.4004	930.9 ± 2	1271.5 ± 1.2
318.15 K, x2 = 0.5064	917.03 ± 2	1239.1 ± 1.1
318.15 K, x2 = 0.6021	904.51 ± 2	1209.8 ± 1.1
318.15 K, x2 = 0.7043	891.14 ± 2	1178.5 ± 1.1
318.15 K, x2 = 0.8009	878.51 ± 2	1148.9 ± 1
318.15 K, x2 = 0.9012	865.39 ± 2	1118.2 ± 1
323.15 K, x2 = 0	979.46 ± 2	1379.5 ± 1.4
323.15 K, x2 = 0.1011	966.07 ± 2	1347.9 ± 1.4
323.15 K, x2 = 0.2032	952.55 ± 2	1316 ± 1.3
323.15 K, x2 = 0.3034	939.28 ± 2	1284.7 ± 1.2
323.15 K, x2 = 0.4004	926.44 ± 2	1254.4 ± 1.2
323.15 K, x2 = 0.5064	912.4 ± 2	1221.3 ± 1.1
323.15 K, x2 = 0.6021	899.72 ± 2	1191.4 ± 1.1
323.15 K, x2 = 0.7043	886.19 ± 2	1159.4 ± 1.1
323.15 K, x2 = 0.8009	873.4 ± 2	1129.2 ± 1
323.15 K, x2 = 0.9012	860.11 ± 2	1097.9 ± 1
